Laboratory results as given in paper PMC10896388, “Hybrid Allosteric Modulators of M1 Muscarinic Receptors Enhance Acetylcholine Efficacy and Decrease Locomotor Activity and Turning Behaviors in Zebrafish” (Research Square, 2024).
Entries after “also recorded” stand apart in the source; their conditions may differ. Where two headings read alike, the source gives them in different places.

How the values were obtained:
[1] = system: wild-type (AB) zebrafish (Danio rerio); assay: Maximum tolerated concentration (MTC) determination in zebrafish larvae; assay type: in vivo; settings: for MTC (maximum tolerated concentration): 5 dpf zebrafish larvae, after 24-hr exposure
Protocol: Determination of maximum tolerated concentration (adapted from Berghmans)[52] was completed by placing 5 days post fertilization (dpf) wild-type zebrafish larvae in a 24 well plate at 6 fish per well, and one compound concentration per well. […] Death was determined by the absence of heartbeat. Additional endpoints were used to assess toxicity at non-lethal concentrations such as startle capacity (poke stimulus), abnormalities in swimming behavior (loss of dorsoventral balance), and gross morphological deformities (bent body). […] The MTC determination was used to select three doses of each compound (low, medium, high dose) to be used in behavioral assays.

[2] = system: wild-type (AB) zebrafish (Danio rerio); assay: animal or person; assay type: in vivo; settings: for Therap. Index: zebrafish, apparently MTC / MEC
Protocol: The movement of larval zebrafish was monitored with the Noldus behavior recording system (Noldus Information Technology, Leesburg VA) and quantified using EthoVision® XT 15 software (Noldus Information Technology, Leesburg VA). Five-dpf zebrafish larvae were exposed to a range of nonlethal concentrations of compounds in a 24-well plate with appropriate controls. The plate was immediately placed in the incubator for a 30-minute exposure period. After 30 minutes, the plate was transferred to the Noldus system and swimming behavior was recorded in 100% light for 30 minutes to measure spontaneous swimming behavior. The light was switched off for 10 minutes (dark period) and then switched on for 10 minutes (light period), which was then repeated for two additional cycles. In total, the larvae were exposed to three cycles of alternating 10-minute dark and light periods (100% darkness-to-100% light). Each drug challenge was conducted on three separate plates with n = 6 larvae/dose/plate.
Absolute turn angle (TA) and angular velocity provided measures of the extent of turning behavior, while the intra-individual variance of turn angle quantified how consistently (low variance) or inconsistently (high variance) fish turned. A lowered intra-individual variance of turning reflected repeatedly performing the same turning behavior, a stereotypy.[53]
All data for exposure and the behavioral end points were analyzed by one-way ANOVA (factor: drug concentration) followed by a Dunnett’s multiple comparisons test for post hoc significance between drug concentration and control group. Statistically significant differences are noted as follows; *, p < 0.05; **, p < 0.01; ***, p < 0.001.

[3] = target: T1, human M1 muscarinic receptors (Homo sapiens, UniProt P11229); assay: [3H]-arachidonic acid release in CHO cells expressing M1 receptors, with and without ACh; assay type: cell-based; set-up: expressed in transfected cells; host or cells: CHO cells (stably transfected CHO-hM1, from Mark Brann's laboratory, NIH); settings: for No ACh: agonist effect of the allosteric ligand by itself, fraction of the maximal response that could be elicited by ACh / 0.1 µM ACh: response with modulator present divided by response to ACh alone / 100 µM ACh: response with modulator present divided by response to ACh alone: modulator 10 µM, mean ± s.e.m.; for No ACh: agonist effect of the allosteric ligand by itself, fraction of the maximal response that could be elicited by ACh: at least 4 determinations
T1 sequence (P11229 1-460): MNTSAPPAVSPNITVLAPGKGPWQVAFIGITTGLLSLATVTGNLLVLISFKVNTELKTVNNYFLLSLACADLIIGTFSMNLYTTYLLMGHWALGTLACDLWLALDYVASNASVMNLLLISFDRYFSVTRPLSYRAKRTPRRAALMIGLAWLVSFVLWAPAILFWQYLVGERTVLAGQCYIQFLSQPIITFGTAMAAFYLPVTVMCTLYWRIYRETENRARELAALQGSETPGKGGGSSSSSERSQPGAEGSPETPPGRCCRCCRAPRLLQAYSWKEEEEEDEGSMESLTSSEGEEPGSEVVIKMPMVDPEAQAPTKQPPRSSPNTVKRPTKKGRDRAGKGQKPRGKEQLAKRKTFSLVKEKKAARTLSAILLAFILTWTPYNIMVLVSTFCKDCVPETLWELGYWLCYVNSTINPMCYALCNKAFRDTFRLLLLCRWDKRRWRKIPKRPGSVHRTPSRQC
Protocol: CHO cells expressing human M1 muscarinic receptors were cultured at 37°C in a 5% CO2 atmosphere in F12 medium supplemented with 5% fetal bovine serum, 100 units/mL penicillin, and 100µg/mL streptomycin. These cells were obtained from Mark Brann’s laboratory when they were at NIH and have been in use by us and others for many years.[49]
Measurement of [^3H]AA release was performed as described in Stahl and Ellis.[24] Stably transfected CHO-hM1 cells were seeded on 24-well plates (Greiner Bio-One GmbH, Frickenhausen, Germany) at a density of 5.0 × 10^4 cells/well in 0.5 ml of F-12 medium. Cells were incubated until they attached (approximately 3 h), followed by the addition of [^3H]AA to a final concentration of 0.05 µCi of [^3H]AA per well. The cells were then grown for 16 to 20 h before the assay was performed. [^3H]AA release was measured in Eagle’s basal medium with 20 mM HEPES and 2 mg/ml fatty acid-free bovine serum albumin (EM-BSA). Cells were rinsed twice with EM-BSA, followed by the addition of EM-BSA media containing experimental agents and incubated for 1 h at 37°C. The assay was terminated by aspiration of the media, and the amount of [^3H]AA released was determined by liquid scintillation counting (Beckman-Coulter LS6500). […]
Tabulated [^3H]AA release data are represented as a fraction of maximal release elicited by ACh or as the fraction of release elicited by the relevant concentration of ACh alone, as indicated. Dose-response curves were normalized to the maximal response of ACh without allosteric ligand. Where indicated, response curves were analyzed using the empirical four-parameter equation: […] where X is the concentration of the ligand used, Y is the amount of response, C50 is the concentration of the ligand that produces 50% of the maximal effect, Top and Bottom are the top and bottom plateaus of the curve, and n is related to the Hill slope for the curve. Where indicated, families of response curves were analyzed according to an allosteric operational model:[50],[51]

[4] = [3H]AA release, CHO-hM1, modulators at 10 µM (amiodarone 30 µM)

Row | SMILES | MTC (maximum tolerated concentration) [1] [µM] | Therap. Index [2] | modulation of ACh response (in words) [3, 4] | further results
1 | CCCCc1oc2ccccc2c1C(=O)c1cc(I)c(OCCN(CC)CC)c(I)c1 [Amiodarone, reference compound] | 10 |  |  | concentration that produced death ([1]; zebrafish larvae): 100 µM
2 | COc1ccc(Cn2cc(C(=O)O)c(=O)c3ccccc32)cc1 [BQCA, reference compound] |  |  |  | effect on locomotor activity and turning behaviors (in words) ([2]; AB zebrafish, 30-minute spontaneous swimming period): decreased overall locomotor activity; modulation of ACh response (in words) [3]: enhanced potency without appreciable effect on maximal response; No ACh: agonist effect of the allosteric ligand by itself, fraction of the maximal response that could be elicited by ACh ([3]; CHO-hM1): 0.02 ± 0.00
3 | CCCCc1oc2ccccc2c1C(=O)c1cc(I)c(OCCNCC)c(I)c1.Cl [Compound 1, (2-butylbenzofuran-3-yl)(4-(2-(ethylamino)ethoxy)-3,5-diiodophenyl)methanone hydrochloride] | 3 | 1 | suppressed the maximal ACh response | 
4 | CCCCc1oc2ccccc2c1C(=O)c1cc(I)c(OCC[N+](CC)(CC)CC)c(I)c1 [Compound 2, N-ethyl amiodarone, reference compound] | 1 |  | NAM of mAChR potency and efficacy | 
5 | CCCCc1oc2ccccc2c1C(=O)c1cc(I)c(O)c(I)c1 [Compound 3, reference compound] | 3 |  | suppressed the maximal ACh response | 
6 | CCCCc1oc2ccccc2c1C(=O)c1ccc(O)cc1 [Compound 4, reference compound] | 0.3 |  | suppressed the maximal ACh response | 
7 | CCCCc1oc2ccccc2c1C(=O)c1cc(I)c(OCCN(CC)C(C)=O)c(I)c1 [Compound 5a, N-(2-(4-(2-butylbenzofuran-3-carbonyl)-2,6-diiodophenoxy)ethyl)-N-ethylacetamide] | 10 |  |  | intrinsic agonist activity (in words) ([3]; [3H]AA release in the absence of ACh, 10 µM): significant intrinsic agonist activity; increase in mAChR activity compared to treatment with ACh alone ([3]; [3H]AA release, CHO-hM1, predominantly at higher doses of ACh (Table 2, not available)): 70%
8 | CCCCc1oc2ccccc2c1C(=O)c1ccc(OC)cc1 [Compound 6a, (2-butylbenzofuran-3-yl)(4-methoxyphenyl)methanone] | 3 |  |  | 
9 | CCCCc1oc2ccccc2c1C(=O)c1cc(I)c(OC)c(I)c1 [Compound 6b, (2-butylbenzofuran-3-yl)(3,5-diiodo-4-methoxyphenyl)methanone] | 30 |  | increased ACh activity | 
10 | CCCCc1oc2ccccc2c1C(=O)c1ccc(OCCN(CC)CC)cc1 [Compound 6c, (2-butylbenzofuran-3-yl)(4-(2-(diethylamino)ethoxy)phenyl)methanone] | 3 | 30 | decreased ACh activity | 
11 | COc1ccc(CN2C(=O)C(=O)c3ccccc32)cc1I [Compound 8b, 1-(3-iodo-4-methoxybenzyl)indoline-2,3-dione] | 10 | 10 |  | 
12 | COc1ccc(CN2C(=O)C(=O)c3ccccc32)cc1Br [Compound 8d, 1-(3-bromo-4-methoxybenzyl)indoline-2,3-dione] | 100 | 100 |  | 
13 | COc1c(Cl)cc(CN2C(=O)C(=O)c3ccccc32)cc1Cl [Compound 8e, 1-(3,5-dichloro-4-methoxybenzyl)indoline-2,3-dione] | 100 | 100 |  | 
14 | COc1ccc(CN2C(=O)C(=O)c3ccccc32)cc1Cl [Compound 8f, 1-(3-chloro-4-methoxybenzyl)indoline-2,3-dione] | 10 | 3.3 |  | 
15 | COc1c(F)cc(CN2C(=O)C(=O)c3ccccc32)cc1F [Compound 8g, 1-(3,5-difluoro-4-methoxybenzyl)indoline-2,3-dione] | 30 | 30 |  | 
16 | COc1ccc(CN2C(=O)C(=O)c3ccccc32)cc1F [Compound 8h, 1-(3-fluoro-4-methoxybenzyl)indoline-2,3-dione] | 30 | 10 |  | 
17 | O=C1C(=O)N(Cc2cc(F)c(F)c(F)c2)c2ccccc21 [Compound 8i, 1-(3,4,5-trifluorobenzyl)indoline-2,3-dione] | 10 | 10 |  | 
18 | COc1cc(CN2C(=O)C(=O)c3ccccc32)cc(OC)c1OC [Compound 8k, 1-(3,4,5-trimethoxybenzyl)indoline-2,3-dione] | 30 | 30 |  | 
19 | CCN(CC)CCOc1c(Br)cc(CN2C(=O)C(=O)c3ccccc32)cc1Br.Cl [Compound 8l, 1-(3,5-dibromo-4-(2-(diethylamino)ethoxy)benzyl)indoline-2,3-dione hydrochloride] | 10 | 1 | only decreased ACh activity; also recorded: decreased ACh potency with little impact on ACh efficacy | 
20 | O=C1C(=O)N(Cc2ccc(O)cc2)c2ccccc21 [Compound 10, 1-(4-hydroxybenzyl)indoline-2,3-dione] | 10 | 3.3 |  | 
21 | CCCCc1oc2ccc(NS(C)(=O)=O)cc2c1C(=O)c1ccc(OCCCN(CCCC)CCCC)cc1 [Dronedarone, reference compound] | 10 | 1 |  | 0.1 µM ACh: response with modulator present divided by response to ACh alone ([3]; CHO-hM1): 0.25 ± 0.05; 100 µM ACh: response with modulator present divided by response to ACh alone ([3]; CHO-hM1): 0.75 ± 0.07; No ACh: agonist effect of the allosteric ligand by itself, fraction of the maximal response that could be elicited by ACh ([3]; CHO-hM1): 0.08 ± 0.01
22 | O=C1C(=O)N(Cc2ccc(Br)cc2)c2ccccc21 [VU0119498, reference compound] |  |  |  | 0.1 µM ACh: response with modulator present divided by response to ACh alone ([3]; CHO-hM1): 1.28 ± 0.12; 100 µM ACh: response with modulator present divided by response to ACh alone ([3]; CHO-hM1): 1.03 ± 0.05; No ACh: agonist effect of the allosteric ligand by itself, fraction of the maximal response that could be elicited by ACh ([3]; CHO-hM1): 0.06 ± 0.01
